Values of other authors as cited in paper PMC11390321 (Cancer chemotherapy and pharmacology, 2024).

Conditions: tumor-bearing mice, orally administered; cited from earlier work

SMILES: C[C@@H]1COCCN1c1cc(C2([S@](C)(=N)=O)CC2)nc(-c2cc[nH]c3nccc2-3)n1 [ceralasertib]
- bone marrow exposure relative to plasma: 4.60 fold
